Data on 21 compounds can be found in patent US12496350B2 (Ohio State Innovation Foundation, priority 2018, dated 2025).

The target in assay [1] is T1, CAL PDZ domain (CALP5-His) (Homo sapiens, UniProt Q9HD26).
T1 construct: His
The assay can be described thus: FP-based competition assay, Condition B (probe FAM-[…]-OH). The format is binding. Particulars: for effect of substitution at P-5 on binding: Trp replaced with 1- or 2-naphthylalanine. As for the experimental part:
Serial dilutions of each competitor peptide were prepared in PBS and the incubation solution was added to each. The combined solutions were gently mixed for 1 h at RT after which 20 uL sample was pipetted into 384-well black-on-black microplates and fluorescence polarization was measured using a TECAN Infinite M1000 plate reader. Data was processed to determine IC50 using GraphPad PRISM ver. 6.0.

For assay [2], the target named is T1, CAL PDZ domain (CALP5-His). The assay can be described thus: Direct fluorescence polarization binding of labeled peptide, Condition C. As for the experimental part: Condition C (denoted with superscript ^C): 50 nM labeled peptide was incubated with 2 mM TCEP in PBS at pH 7.4 containing 0.01% Triton-X100. CALP5-His was serially diluted in PBS containing 0.01% Triton-X100 to which was then added the peptide and TCEP solution. This solution was mixed for 1 h at RT then 20 uL was pipetted into 384-well microplates and fluorescence polarization was measured using a TECAN Infinite M1000 plate reader. KD values were calculated using KaleidaGraph v. 3.6 using the equation: […]
Binding Affinity and Selectivity. The potency and selectivity of inhibitor 29 was first assessed by comparing its binding affinity to the four PDZ domains of CAL, NHERF1, and NHERF2, which are involved in the trafficking of CFTR to and from the plasma membrane. Peptides were labeled with FITC at the N-terminus through a miniPEG linker and tested for binding to various PDZ domains by fluorescence polarization (FP). FITC-labeled peptide (50 nM) was incubated with varying concentrations of PDZ domain in PBS (pH 7.4) containing 0.01% Triton X-100 and 2 mM TCEP for 1 h at room temperature. After 1 h, 20 μL of each sample was pipetted into 384-well black-on-black microplates and fluorescence polarization was measured by using a TECAN Infinite M1000 plate reader. Data was processed using GraphPad PRISM ver. 8.0.
In general terms: In fluorescence polarisation assays a small probe gives low polarisation when free and higher when bound to something large.

A further assay has as its target CAL PDZ binding domain (Homo sapiens, UniProt Q9HD26). Particulars: CAL PDZ binding sequences not conjugated to a cCPP; cited from earlier work.
Where [3] appears, read: Condition C (superscript c): 50 nM labeled peptide, 2 mM TCEP, read-out: KD (printed in the IC50 (nM) column).
The mark [4] stands for this setting: FITC-labeled peptide, FP, read-out: Affinity (KD).

Read-outs that look alike come from different tables or passages of the source. Where a SMILES comes first, the peptide text is derived from it. Where no end group is shown, it is not given here. [ ]: non-standard residue; d: D form. The star is where a group is joined. X2 = O=C(O)c1cc(C(=O)*)ccc1-c1c2ccc(=O)cc-2oc2cc(O)ccc12; X1 = O=C(O)c1cc(NC(=S)*)ccc1C1c2ccc(O)cc2Oc2cc(O)ccc21; X3 = O=C(O)c1cc(C(=O)*)ccc1C1c2ccc(O)cc2Oc2cc(O)ccc21; 1Nal = N[C@@H](Cc1cccc2ccccc12)C(=O)O; 2Nal = N[C@@H](Cc1ccc2ccccc2c1)C(=O)O; Bta = N[C@@H](Cc1csc2ccccc12)C(=O)O; Pen = CC(C)(S)[C@H](N)C(=O)O; Tle = CC(C)(C)[C@H](N)C(=O)O; AEEA = NCCOCCOCC(=O)O

Regarding `CC(=O)N[C@@H](CS)C(=O)N[C@@H](CCCNC(=N)N)C(=O)N[C@@H](CCCNC(=N)N)C(=O)N[C@@H](CCCNC(=N)N)C(=O)N[C@@H](Cc1ccccc1)C(=O)N[C@@H](Cc1c[nH]c2ccccc12)C(=O)N[C@@H](CCC(N)=O)C(=O)N[C@@H](CS)C(=O)N[C@H](C(=O)N[C@@H](CCCNC(=N)N)C(=O)N[C@@](C)(CC(C)C)C(=O)O)[C@@H](C)O` [Compound 4], the IC50 (usually the concentration that gives 50% inhibition) in assay [1] (Condition B (superscript b): 100 nM probe FAM-[…]-OH, 500 nM CALP5-His, 5 mM DTT) is above 20 µM.
Consider `CC(=O)N[C@@H](CS)C(=O)N[C@@H](CCCNC(=N)N)C(=O)N[C@@H](CCCNC(=N)N)C(=O)N[C@@H](CCCNC(=N)N)C(=O)N[C@@H](Cc1ccccc1)C(=O)N[C@@H](Cc1cccc2ccccc12)C(=O)N[C@@H](CCC(N)=O)C(=O)N[C@@H](CS)C(=O)N[C@H](C(=O)N[C@@H](CCCNC(=N)N)C(=O)N[C@H](C(=O)O)C(C)(C)C)[C@@H](C)O` [Compound 14, Ac-Cys-Arg-Arg-Arg-Phe-(1-Nal)-Gln-Cys-Thr-Arg-Tle-OH] (Ac-CRRRF[1Nal]QCTR[Tle]-OH), for which the “effect of substitution at P-5 on binding” value in assay [1] is “did not significantly affect the binding”.
Consider `CC(=O)N[C@@H](CS)C(=O)N[C@@H](CCCNC(=N)N)C(=O)N[C@@H](CCCNC(=N)N)C(=O)N[C@@H](CCCNC(=N)N)C(=O)N[C@@H](Cc1ccccc1)C(=O)N[C@@H](Cc1ccc2ccccc2c1)C(=O)N[C@@H](CCC(N)=O)C(=O)N[C@@H](CS)C(=O)N[C@H](C(=O)N[C@@H](CCCNC(=N)N)C(=O)N[C@H](C(=O)O)C(C)(C)C)[C@@H](C)O` [Compound 15, Ac-Cys-Arg-Arg-Arg-Phe-(2-Nal)-Gln-Cys-Thr-Arg-Tle-OH] (Ac-CRRRF[2Nal]QCTR[Tle]-OH), for which the “effect of substitution at P-5 on binding” value in assay [1] is “did not significantly affect the binding”.
With `CC(=O)N[C@@H](CS)C(=O)N[C@@H](CCCNC(=N)N)C(=O)N[C@@H](CCCNC(=N)N)C(=O)N[C@@H](CCCNC(=N)N)C(=O)N[C@@H](Cc1ccccc1)C(=O)N[C@@H](Cc1c[nH]c2ccccc12)C(=O)N[C@@H](CCC(N)=O)C(=O)N[C@H](C(=O)N[C@H](C(=O)N[C@@H](CCCNC(=N)N)C(=O)N[C@H](C(=O)O)C(C)(C)C)[C@@H](C)O)C(C)(C)S` [Compound 16, Ac-Cys-Arg-Arg-Arg-Phe-Trp-Gln-Pen-Thr-Arg-Tle-OH], the “improvement of CAL binding” value in assay [1] (Pen for cysteine at P-3) is recorded as around 2 fold.
Take `C[C@@H](O)[C@H](NC(=O)[C@@H](NC(=O)[C@@H]1CCCN1C(=O)[C@H](Cc1c[nH]c2ccccc12)NC(=O)[C@H](Cc1ccc2ccccc2c1)NC(=O)[C@H](CCCNC(=N)N)NC(=O)[C@H](CCCNC(=N)N)NC(=O)[C@H](CCCNC(=N)N)NC(=O)[C@H](CS)NC(=O)COCCOCCNC(=O)c1ccc(C2c3ccc(O)cc3Oc3cc(O)ccc32)c(C(=O)O)c1)C(C)(C)S)C(=O)N[C@@H](CCCNC(=N)N)C(=O)N[C@H](C(=O)O)C(C)(C)C` [Compound 23, FAM-miniPEG-Cys-(D-Arg)-Arg-Arg-(2-Nal)-Trp-Pro-Pen-Thr-Arg-Tle-OH] ({X3-AEEA}-CRRR[2Nal]WP[Pen]TR[Tle]-OH): the Kd (commonly the constant that tells how readily two partners part at equilibrium) in assay [2] (setting [3]) amounted to 168 nM.
On to `C[C@@H](O)[C@H](NC(=O)[C@@H](NC(=O)[C@@H](NC(=O)[C@H](Cc1csc2ccccc12)NC(=O)[C@H](Cc1ccc2ccccc2c1)NC(=O)[C@H](CCCNC(=N)N)NC(=O)[C@H](CCCNC(=N)N)NC(=O)[C@@H](CCCNC(=N)N)NC(=O)[C@H](CS)NC(=O)COCCOCCNC(=O)c1ccc(-c2c3ccc(=O)cc-3oc3cc(O)ccc23)c(C(=O)O)c1)C(C)(C)S)C(C)(C)C)C(=O)N[C@@H](CCCNC(=N)N)C(=O)N[C@H](C(=O)O)C(C)(C)C` [Compound 26, FAM-miniPEG-Cys-(D-Arg)-Arg-Arg-(2-Nal)-(Bta)-Pen-Tle-Thr-Arg-Tle-OH] ({X2-AEEA}-C[dR]RR[2Nal][Bta][Pen][Tle]TR[Tle]-OH), for which the “specificity for CAL PDZ domain relative to other PDZ domains (e.g., NHERF PDZ domains)” value in assay [2] is “relatively low specificity”. For the same compound, the Kd in assay [2] (setting [3]) turned out to be 49 ± 3 nM.
`CC(=O)N[C@@H](CS)C(=O)N[C@H](CCCNC(=N)N)C(=O)N[C@@H](CCCNC(=N)N)C(=O)N[C@@H](CCCNC(=N)N)C(=O)N[C@@H](Cc1ccc2ccccc2c1)C(=O)N[C@@H](Cc1c[nH]c2ccccc12)C(=O)N1CCC[C@H]1C(=O)N[C@H](C(=O)N[C@H](C(=O)N[C@@H](CCCNC(=N)N)C(=O)N[C@H](C(=O)O)C(C)(C)C)[C@@H](C)O)C(C)(C)S` [Compound 27, Ac-Cys-(D-Arg)-Arg-Arg-Nal-Trp-Pro-Pen-Thr-Arg-Tle-OH] (Ac-C[dR]RR[2Nal]WP[Pen]TR[Tle]-OH): the Kd in assay [2] (setting [4]) came to 179 nM.
Regarding `C[C@@H](O)[C@H](NC(=O)[C@@H](NC(=O)[C@@H]1CCCN1C(=O)[C@H](Cc1c[nH]c2ccccc12)NC(=O)[C@H](Cc1ccc2ccccc2c1)NC(=O)[C@H](CCCNC(=N)N)NC(=O)[C@H](CCCNC(=N)N)NC(=O)[C@@H](CCCNC(=N)N)NC(=O)[C@H](CS)NC(=O)COCCOCCNC(=S)Nc1ccc(C2c3ccc(O)cc3Oc3cc(O)ccc32)c(C(=O)O)c1)C(C)(C)S)C(=O)N[C@@H](CCCNC(=N)N)C(=O)N[C@H](C(=O)O)C(C)(C)C` [Compound 27-FITC, FITC-miniPEG-Cys-(D-Arg)-Arg-Arg-Nal-Trp-Pro-Pen-Thr-Arg-Tle-OH] ({X1-AEEA}-C[dR]RR[2Nal]WP[Pen]TR[Tle]-OH), in assay [2] (setting [4]), the Kd amounted to 179 ± 42 nM.
In the case of `CC(=O)N[C@@H](CS)C(=O)N[C@H](CCCNC(=N)N)C(=O)N[C@@H](CCCNC(=N)N)C(=O)N[C@@H](CCCNC(=N)N)C(=O)N[C@@H](Cc1ccc2ccccc2c1)C(=O)N[C@@H](Cc1csc2ccccc12)C(=O)N1CCC[C@H]1C(=O)N[C@H](C(=O)N[C@H](C(=O)N[C@@H](CCCNC(=N)N)C(=O)N[C@H](C(=O)O)C(C)(C)C)[C@@H](C)O)C(C)(C)S` [Compound 28, Ac-Cys-(D-Arg)-Arg-Arg-Nal-Bta-Pro-Pen-Thr-Arg-Tle-OH] (Ac-C[dR]RR[2Nal][Bta]P[Pen]TR[Tle]-OH), the dissociation constant (Kd) in assay [2] (setting [4]) came out at 87 nM.
Still for that read-out and setting: under `C[C@@H](O)[C@H](NC(=O)[C@@H](NC(=O)[C@@H]1CCCN1C(=O)[C@H](Cc1csc2ccccc12)NC(=O)[C@H](Cc1ccc2ccccc2c1)NC(=O)[C@H](CCCNC(=N)N)NC(=O)[C@H](CCCNC(=N)N)NC(=O)[C@@H](CCCNC(=N)N)NC(=O)[C@H](CS)NC(=O)COCCOCCNC(=S)Nc1ccc(C2c3ccc(O)cc3Oc3cc(O)ccc32)c(C(=O)O)c1)C(C)(C)S)C(=O)N[C@@H](CCCNC(=N)N)C(=O)N[C@H](C(=O)O)C(C)(C)C` [Compound 28-FITC, FITC-miniPEG-Cys-(D-Arg)-Arg-Arg-Nal-Bta-Pro-Pen-Thr-Arg-Tle-OH] ({X1-AEEA}-C[dR]RR[2Nal][Bta]P[Pen]TR[Tle]-OH) stands 87 ± 14 nM.
For the compound WQFTKL [WQFTKL], at CAL PDZ binding domain, the Ki (in general, the dissociation constant of the complex between target and ligand, obtained from inhibition or displacement) is 16 ± 1 µM.
With WQFTRL [WQFTRL], on CAL PDZ binding domain, the Ki was 7.6 ± 0.7 µM.
For WQKTKL [WQKTKL], the inhibitory constant (Ki) on CAL PDZ binding domain is 17.8 ± 0.8 µM.
WQKTRI [WQKTRI]: the Ki on CAL PDZ binding domain was 12 ± 0.9 µM.
Consider WQKTRL [WQKTRL], for which, at CAL PDZ binding domain, the Ki was 9 ± 0.6 µM.
Turning to WQKTRV [WQKTRV], the Ki on CAL PDZ binding domain is 16 ± 2 µM.
In the case of WQLTKL [WQLTKL], on CAL PDZ binding domain, the Ki is 17 ± 1 µM.
As for WQRTRI [WQRTRI], the Ki at CAL PDZ binding domain is 16 ± 2 µM.
WQRTRL [WQRTRL]: the inhibitory constant (Ki) at CAL PDZ binding domain was 10.8 ± 0.7 µM.
WQRTRV [WQRTRV]: the Ki at CAL PDZ binding domain is 18 ± 1 µM.
Consider WQVTRV [WQVTRV], for which, at CAL PDZ binding domain, the inhibition constant Ki was 2.3 ± 0.2 µM.
